System: 276233-004-R-J1-PDC complex spheroid viability
Assay: Anticancer human tumor 276233-004-R-J1-PDC patient-derived colon adenocarcinoma cell line growth inhibition [GQUAD]
Settings: for IC50: curve of first compound; for viability, T/C: stronger effect = lower value; active = viability on the fitted dose curve at most 10% of control; inactive = the rest
Procedure, shortened: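 Tumor cells were grown as complex spheroids with HUVEC endothelial cells and mesenchymal stem cells as stroma. G-quadruplex stabilizers were combined with targeted agents over half-log dilutions from near the clinical Cmax, or from 10 microM.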

[1] = second compound 0.0316 µM, first compound 0.0316 µM
[2] = second compound 0.0316 µM, first compound 0.1 µM
[3] = second compound 0.0316 µM, first compound 0.316 µM
[4] = second compound 0.0316 µM, first compound 1 µM
[5] = second compound 0.0316 µM, first compound 3.16 µM
[6] = second compound 0.0316 µM, first compound 10 µM
[7] = second compound 0.1 µM, first compound 0.0316 µM
[8] = second compound 0.1 µM, first compound 0.1 µM
[9] = second compound 0.1 µM, first compound 0.316 µM
[10] = second compound 0.1 µM, first compound 1 µM
[11] = second compound 0.1 µM, first compound 3.16 µM
[12] = second compound 0.1 µM, first compound 10 µM
[13] = second compound 0.316 µM, first compound 0.0316 µM
[14] = second compound 0.316 µM, first compound 0.1 µM
[15] = second compound 0.316 µM, first compound 0.316 µM
[16] = second compound 0.316 µM, first compound 1 µM
[17] = second compound 0.316 µM, first compound 3.16 µM
[18] = second compound 0.316 µM, first compound 10 µM
[19] = second compound 1 µM, first compound 0.0316 µM
[20] = second compound 1 µM, first compound 0.1 µM
[21] = second compound 1 µM, first compound 0.316 µM
[22] = second compound 1 µM, first compound 1 µM
[23] = second compound 1 µM, first compound 3.16 µM
[24] = second compound 1 µM, first compound 10 µM
[25] = second compound 3.16 µM, first compound 0.0316 µM
[26] = second compound 3.16 µM, first compound 0.1 µM
[27] = second compound 3.16 µM, first compound 0.316 µM
[28] = second compound 3.16 µM, first compound 1 µM
[29] = second compound 3.16 µM, first compound 3.16 µM
[30] = second compound 3.16 µM, first compound 10 µM
[31] = second compound 10 µM, first compound 0.0316 µM
[32] = second compound 10 µM, first compound 0.1 µM
[33] = second compound 10 µM, first compound 0.316 µM
[34] = second compound 10 µM, first compound 1 µM
[35] = second compound 10 µM, first compound 3.16 µM
[36] = second compound 10 µM, first compound 10 µM
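Note: spheroids exposed to drugs for seven days.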
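Throughout, for viability, T/C: 100% = DMSO vehicle control viability.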

COc1cccc2c1C(=O)c1c(O)c3c(c(O)c1C2=O)CC(O)(C(=O)CO)CC3OC1CC(N)C(O)C(C)O1 (stereo unspecified) + CN(C)c1ccc(Nc2c3ccc(NC(=O)CCN4CCCC4)cc3nc3cc(NC(=O)CCN4CCCC4)ccc23)cc1
> 10 µM: IC50 (second compound 0.0316 µM) | IC50 (second compound 0.1 µM) | IC50 (second compound 0.316 µM) | IC50 (second compound 1 µM) | IC50 (second compound 10 µM)
< 0.0316 µM: IC50 (second compound 3.16 µM)
inactive: viability, T/C [1] 88% | viability, T/C [2] 94.7% | viability, T/C [3] 77.5% | viability, T/C [4] 61.7% | viability, T/C [5] 43% | viability, T/C [6] 66.7% | viability, T/C [7] 102% | viability, T/C [8] 83.8% | viability, T/C [9] 72.8% | viability, T/C [10] 74.8% | viability, T/C [11] 60.6% | viability, T/C [12] 76.7% | viability, T/C [13] 80.6% | viability, T/C [14] 68.4% | viability, T/C [15] 67.9% | viability, T/C [16] 40.8% | viability, T/C [17] 63.1% | viability, T/C [18] 54.4% | viability, T/C [19] 55.8% | viability, T/C [20] 47% | viability, T/C [21] 53.2% | viability, T/C [22] 52.3% | viability, T/C [23] 63.5% | viability, T/C [24] 52.8% | viability, T/C [25] 49.6% | viability, T/C [26] 49.3% | viability, T/C [27] 56.8% | viability, T/C [28] 56.4% | viability, T/C [29] 59.4% | viability, T/C [30] 53.7% | viability, T/C [31] 48.6% | viability, T/C [32] 51.5% | viability, T/C [33] 55.7% | viability, T/C [34] 62.6% | viability, T/C [35] 50.5% | viability, T/C [36] 43.5%

Cc1cccc(N(C)C(=O)C2C(O)CCN2c2nc(C)cc(C(F)(F)F)c2C#N)c1 (stereo unspecified) + CN(C)c1ccc(Nc2c3ccc(NC(=O)CCN4CCCC4)cc3nc3cc(NC(=O)CCN4CCCC4)ccc23)cc1
> 10 µM: IC50 (second compound 0.0316 µM) | IC50 (second compound 0.1 µM) | IC50 (second compound 0.316 µM) | IC50 (second compound 1 µM) | IC50 (second compound 3.16 µM)
< 0.0316 µM: IC50 (second compound 10 µM)
inactive: viability, T/C [1] 77.3% | viability, T/C [2] 74.1% | viability, T/C [3] 86.7% | viability, T/C [4] 97.1% | viability, T/C [5] 98.1% | viability, T/C [6] 101% | viability, T/C [7] 96.8% | viability, T/C [8] 98.1% | viability, T/C [9] 89.5% | viability, T/C [10] 89.2% | viability, T/C [11] 86.5% | viability, T/C [12] 96% | viability, T/C [13] 71.2% | viability, T/C [14] 75.4% | viability, T/C [15] 73.2% | viability, T/C [16] 50.7% | viability, T/C [17] 60.5% | viability, T/C [18] 68.1% | viability, T/C [19] 57.3% | viability, T/C [20] 47.1% | viability, T/C [21] 63.1% | viability, T/C [22] 57.6% | viability, T/C [23] 51.2% | viability, T/C [24] 64.9% | viability, T/C [25] 51% | viability, T/C [26] 49.3% | viability, T/C [27] 50.6% | viability, T/C [28] 55.9% | viability, T/C [29] 65.8% | viability, T/C [30] 68.7% | viability, T/C [31] 39.7% | viability, T/C [32] 51.5% | viability, T/C [33] 41.2% | viability, T/C [34] 72.6% | viability, T/C [35] 63.1% | viability, T/C [36] 54.8%

Nc1ccn(C2OC(CO)C(O)C2(F)F)c(=O)n1 (stereo unspecified) + CN(C)c1ccc(Nc2c3ccc(NC(=O)CCN4CCCC4)cc3nc3cc(NC(=O)CCN4CCCC4)ccc23)cc1
> 10 µM: IC50 (second compound 0.0316 µM) | IC50 (second compound 0.1 µM) | IC50 (second compound 0.316 µM) | IC50 (second compound 1 µM) | IC50 (second compound 3.16 µM) | IC50 (second compound 10 µM)
inactive: viability, T/C [1] 97.1% | viability, T/C [2] 109% | viability, T/C [3] 96.2% | viability, T/C [4] 90.6% | viability, T/C [5] 79.6% | viability, T/C [6] 59% | viability, T/C [7] 86.1% | viability, T/C [8] 88.6% | viability, T/C [9] 89.7% | viability, T/C [10] 94.5% | viability, T/C [11] 73.8% | viability, T/C [12] 65% | viability, T/C [13] 71.8% | viability, T/C [14] 78.7% | viability, T/C [15] 59.6% | viability, T/C [16] 56.3% | viability, T/C [17] 56.6% | viability, T/C [18] 66.9% | viability, T/C [19] 70.8% | viability, T/C [20] 53.9% | viability, T/C [21] 53.6% | viability, T/C [22] 51% | viability, T/C [23] 57.9% | viability, T/C [24] 57.8% | viability, T/C [25] 64.2% | viability, T/C [26] 60.5% | viability, T/C [27] 56% | viability, T/C [28] 58.1% | viability, T/C [29] 44.7% | viability, T/C [30] 53.8% | viability, T/C [31] 56.7% | viability, T/C [32] 57.9% | viability, T/C [33] 47.5% | viability, T/C [34] 65.9% | viability, T/C [35] 61.4% | viability, T/C [36] 47.2%
